According to patent publication US20250177406A1, “PHARMACEUTICAL COMPOSITION FOR TREATING TUMORS” (Eisai R&D Management Co., Ltd., priority 2022, published 2025):
Read-outs that look alike come from different tables or passages of the source.

How the values were obtained:
[1] = test system: xenograft model with the KRAS G12C mutation-positive human non-small cell lung cancer cell line NCI-H358; settings: sotorasib 100 mg/kg, once per day, oral
Method: Matrigel/HBSS (50:50) was added to a KRAS G12C mutation-positive human non-small cell lung cancer cell line, NCI-358 cells, to prepare a cell suspension of 8×10^6 cells. The cell suspension was subcutaneously transplanted into nude mice (CAnN.Cg-Foxn1 nu/CrlCrlj, from Charles River Laboratories Japan, Inc.) at the body flank. Six mice were used per group. The date of transplantation was defined as day 1. […] No drug was administered to the control group.
The date of the initiation of administration was defined as day 1. On days 4, 8, 11, and 15, the long diameter and short diameter of tumors generated in each mouse were measured with a Digimatic Caliper (manufactured by Mitutoyo Corp.).

[2] = test system: xenograft model with the KRAS G12C mutation-positive human bladder cancer cell line UM-UC-3; settings: UM-UC-3 xenograft, E7386 25 mg/kg, sotorasib 100 mg/kg, once per day, oral
[3] = test system: xenograft model with the KRAS G12C mutation-positive human colorectal cancer cell line SW837; settings: sotorasib 100 mg/kg, once per day, oral
[4] = test system: xenograft model with the KRAS G12C mutation-positive human non-small cell lung cancer cell line NCI-H358; experiment: Antitumor effect of combined administration with adagrasib in xenograft model (tumor volume); format: in vivo, nude mice; design: unit not given beside the values; settings: adagrasib 10 mg/kg, once per day, oral
Method: Experimental conditions for drug efficacy test using mice with different cell lines (suspension media, cell counts for transplantation, lineages of mice, administered drugs, days of initiation of administration, test periods) were shown in Table 5. Each cell line was prepared with suspension medium to reach an intended cell count for transplantation, and the resulting suspension was subcutaneously transplanted into nude mice (6-week-old, female) at the body flank.
The long diameter and short diameter of tumors generated in each mouse were measured with a Digimatic Caliper (manufactured by Mitutoyo Corp.) twice a week from day 1 as the day of initiation of administration to the final day of the test.
The tumor volume was calculated by the following formula.
Numbers in Table 6 each indicate mean±standard error (SEM) of tumor volume. In the test carried out, six mice were used per group.

[5] = test system: KRAS G12D mutation-positive human bile duct cancer cell line SNU-869; experiment: Cell growth inhibitory activity of combined treatment, ultra-low adsorption plate, CellTiter-Glo 3D, 5 days; format: cell-based; settings: 120 h, SNU-869, MRTX1133 alone
Method: (§1) With different KRAS mutation-positive cell lines, combined treatment of the compound represented by formula (I) and a KRAS inhibitor was evaluated on growth inhibitory activity. […] Cells were seeded in 96-well flat-bottomed ultra-low adsorption plate (manufactured by Corning Incorporated) at 5000 cells/well, and cultured at 5% CO2 and 37° C. for 1 day. […] The drug solutions were prepared by diluting their DMSO stocks with medium to specific concentrations, and added in such a manner that the volume of the culture medium reached 100 μL/well after addition of the drugs. After the culture for 5 days, 30 μL of CellTiter-Glo 3D Reagent (manufactured by Promega Corporation) was added to each well and reacted under shading for 30 minutes, and 50-μL portions were then transferred into a separate white 96-well plate (manufactured by Greiner Bio-One International GmbH), and the emission intensity of luciferase was measured with a plate reader (manufactured by PerkinElmer, Inc.). The measurement values were defined as the relative cell counts.

[6] = test system: KRAS G12D mutation-positive human endometrial cancer cell line HEC-1-B; experiment: as above; format: cell-based; settings: 120 h, MRTX1133 alone
Method: as §1

Compound	tumor volume, mean ± SEM ([1]; Day 11, E7386 25 mg/kg)	tumor volume, mean ± SEM ([1]; Day 15, E7386 25 mg/kg)	tumor volume, mean ± SEM ([2]; Day 5)	tumor volume, mean ± SEM ([2]; Day 12)	tumor volume, mean ± SEM ([2]; Day 15)	tumor volume, mean ± SEM ([3]; Day 5, E7386 25 mg/kg)	tumor volume, mean ± SEM ([3]; Day 12, E7386 25 mg/kg)	tumor volume, mean ± SEM ([4]; Day 4, E7386 25 mg/kg)	tumor volume, mean ± SEM ([4]; Day 8, E7386 25 mg/kg)	tumor volume, mean ± SEM ([4]; Day 11, E7386 25 mg/kg)	tumor volume, mean ± SEM ([4]; Day 15, E7386 25 mg/kg)	tumor volume, mean ± SEM ([4]; Day 18, E7386 25 mg/kg)	GI50 [5]	GI50 [6]
C=CCN1CC(=O)N2[C@@H](Cc3ccc(O)cc3F)C(=O)N(Cc3cccc(N4CC(N5CCN(CC)CC5)C4)n3)C[C@@H]2N1C(=O)NCc1ccccc1 [E7386, (6S,9aS)-N-benzyl-8-((6-(3-(4-ethylpiperazin-1-yl)azetidin-1-yl)pyridin-2-yl)methyl)-6-((2-fluoro-4-hydroxyphenyl)methyl)-4,7-dioxo-2-(prop-2-en-1-yl)-octahydro-1H-pyrazino[2,1-c][1,2,4]triazine-1-carboxamide]	519.9 ± 34.1	714.4 ± 55.5	337.4 ± 20.9	1487.0 ± 59.7	2526.8 ± 123.1	221.5 ± 9.5	340.9 ± 17.5	251.2 ± 8.1	327.4 ± 24.9	445.0 ± 26.3	579.1 ± 45.1	729.2 ± 56.7	–	–
C#Cc1c(F)ccc2cc(O)cc(-c3ncc4c(N5CC6CCC(C5)N6)nc(OC[C@@]56CCCN5C[C@@H](F)C6)nc4c3F)c12 [MRTX1133, 4-(4-((1R,5S)-3,8-diazabicyclo[3.2.1]octan-3-yl)-8-fluoro-2-(((2R,7aS)-2-fluorohexahydro-1H-pyrrolidin-7a-yl)methoxy)pyrodo[4,3-d]pyrimidin-7-yl)-5-et hynyl-6-fluoronaphthalen-2-ol]	–	–	–	–	–	–	–	–	–	–	–	–	1.79 nM	5.37 nM
